Results as given in patent US20240409585A1, “MACROCYCLIC IMMUNOMODULATORS” (priority 2021, published 2024).
Bridge positions count the residues as written; N and C are the ends. Square brackets hold non-standard residues; d marks the D form. Peptide text beside a SMILES is read from it. * marks the point of attachment. ξ: configuration not given here. Phe(4-COOH) = N[C@@H](Cc1ccc(C(=O)O)cc1)C(=O)O; Phe(4-CH2NH2) = NCc1ccc(C[C@H](N)C(=O)O)cc1; Asp(3,3-Me2) = CC(C)(C(=O)O)[C@H](N)C(=O)O; Bip = N[C@@H](Cc1ccc(-c2ccccc2)cc1)C(=O)O; Phe(3-Cl) = N[C@@H](Cc1cccc(Cl)c1)C(=O)O; Phe(3-OMe) = COc1cccc(C[C@H](N)C(=O)O)c1; Phe(3-Me) = Cc1cccc(C[C@H](N)C(=O)O)c1; Val(3-OH) = CC(C)(O)[C@H](N)C(=O)O; hPhe = N[C@@H](CCc1ccccc1)C(=O)O; 3Pal = N[C@@H](Cc1cccnc1)C(=O)O; 4Pal = N[C@@H](Cc1ccncc1)C(=O)O; Cha = N[C@@H](CC1CCCCC1)C(=O)O; Cit = NC(=O)NCCC[C@H](N)C(=O)O; Thr(3ξ) = CC(O)[C@H](N)C(=O)O; ξCha = NC(CC1CCCCC1)C(=O)O; Carboxymethyl = O=C(O)C*; NMeA = CN[C@@H](C)C(=O)O; Dab = NCC[C@H](N)C(=O)O; Dap = NC[C@H](N)C(=O)O

Target: T1, PE-labeled human PD-L1-Ig binding to Jurkat cell line over-expressing human PD-1 (Jurkat-PD-1) (Homo sapiens, UniProt Q15116)
T1 construct: expressed in transfected cells; host or cells: Jurkat
T1 sequence (Q15116 25-288): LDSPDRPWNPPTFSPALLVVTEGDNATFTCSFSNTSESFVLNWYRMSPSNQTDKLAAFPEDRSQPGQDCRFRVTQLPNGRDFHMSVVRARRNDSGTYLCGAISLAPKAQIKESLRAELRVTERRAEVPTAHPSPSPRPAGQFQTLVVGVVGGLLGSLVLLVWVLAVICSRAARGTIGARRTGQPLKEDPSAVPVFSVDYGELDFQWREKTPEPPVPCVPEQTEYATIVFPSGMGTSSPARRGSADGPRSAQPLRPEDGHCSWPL
Assay: Jurkat-PD-1 Cell Binding High-Content Screening Assay (CBA): Method 1
Settings: Jurkat-PD-1 cells, PE-labeled PD-L1-Ig; μM; read-out: CBA Method 1 μM

| IC50 | SMILES |
| --- | --- |
| 0.03 µM | Cc1cccc(C[C@@H]2NC(=O)[C@H](CC(=O)O)NC(=O)[C@H](Cc3ccc(OCC(=O)O)cc3)NC(=O)[C@H](C(C)O)NC(=O)CSC[C@@H](C(=O)N[C@@H](CO)C(=O)NCC(=O)N[C@@H](CO)C(N)=O)NC(=O)[C@H](C(C)O)NC(=O)[C@H](C(C)C)NC(=O)C(CC3CCCCC3)NC(=O)[C@H](CCN)NC(=O)[C@@H](CC(C)C)NC(=O)[C@H](C)N(C)C(=O)[C@H](Cc3ccc(OCC(=O)O)cc3)NC(=O)[C@H](Cc3ccc(-c4ccccc4)cc3)NC(=O)[C@H](Cc3ccc(C(=O)O)cc3)NC2=O)c1 (stereo partly drawn) [Example 5004] ({CH2CO}-[Thr(3ξ)]Y(Carboxymethyl)D[Phe(3-Me)][Phe(4-COOH)][Bip]Y(Carboxymethyl)[NMeA][dL][Dab][ξCha]V[Thr(3ξ)]CSGS-NH2; thioether N-14) |

Same assay, conditions: Jurkat-hPD-1 cells, PE-labeled PD-L1-Ig 20 nM final; read-out: Jurkat HPDL1 PD1 IC50 (uM) (Method 1)

| IC50 | SMILES |
| --- | --- |
| 0.02 µM | Cc1cccc(C[C@@H]2NC(=O)[C@H](CC(=O)O)NC(=O)[C@H](Cc3ccc(OCC(=O)O)cc3)NC(=O)[C@H](CCN)NC(=O)CSC[C@@H](C(=O)N[C@@H](CCN)C(N)=O)NC(=O)[C@H](CO)NC(=O)[C@H](C(C)(C)O)NC(=O)[C@H](CC3CCCCC3)NC(=O)[C@H](CCN)NC(=O)[C@@H](CC(C)C)NC(=O)[C@H](C)N(C)C(=O)[C@H](C(C)(C)C(=O)O)NC(=O)[C@H](Cc3ccc(-c4ccccc4)cc3)NC(=O)[C@H](Cc3ccc(OCC(=O)O)cc3)NC2=O)c1 [Compound 1846] ({CH2CO}-[Dab]Y(Carboxymethyl)D[Phe(3-Me)]Y(Carboxymethyl)[Bip][Asp(3,3-Me2)][NMeA][dL][Dab][Cha][Val(3-OH)]SC[Dab]-NH2; thioether N-14) |
| 0.17 µM | CC(C)C[C@@H]1NC(=O)[C@H](CCCNC(=N)N)NC(=O)[C@@H](Cc2ccccc2)NC(=O)[C@H](C)N(C)C(=O)[C@H](CCCNC(=N)N)NC(=O)[C@H](Cc2ccc(-c3ccccc3)cc2)NC(=O)[C@H](C(C)C)NC(=O)[C@H](Cc2c[nH]c3ccccc23)NC(=O)[C@H](CC(=O)O)NC(=O)[C@H](Cc2ccc(O)cc2)NC(=O)[C@H](CCC(N)=O)NC(=O)CSC[C@@H](C(=O)N[C@@H](C)C(N)=O)NC(=O)[C@H](CO)NC(=O)[C@H](C(C)C)NC1=O [Compound 1043] ({CH2CO}-QYDWV[Bip]R[NMeA][dF]RLVSCA-NH2; thioether N-14) |
| 0.11 µM | CC(C)C[C@@H]1NC(=O)[C@H](CCN)NC(=O)[C@@H](CC(C)C)NC(=O)[C@H](C)N(C)C(=O)[C@H](CCCNC(=N)N)NC(=O)[C@H](Cc2ccc(-c3ccccc3)cc2)NC(=O)[C@H](C(C)C)NC(=O)[C@H](Cc2c[nH]c3ccccc23)NC(=O)[C@H](CC(=O)O)NC(=O)[C@H](Cc2cccc(Cl)c2)NC(=O)[C@H](CN)NC(=O)CSC[C@@H](C(=O)N[C@@H](C)C(N)=O)NC(=O)[C@H]([C@@H](C)O)NC(=O)[C@H](C(C)C)NC1=O [Compound 1445] ({CH2CO}-[Dap][Phe(3-Cl)]DWV[Bip]R[NMeA][dL][Dab]LVTCA-NH2; thioether N-14) |
| 0.01 µM | CC(C)C[C@@H]1NC(=O)[C@H](Cc2c[nH]c3ccccc23)NC(=O)[C@H](CC(=O)O)NC(=O)[C@H](Cc2ccc(O)cc2)NC(=O)[C@H](Cc2ccncc2)NC(=O)CSC[C@@H](C(=O)NCC(N)=O)NC(=O)[C@H](CO)NC(=O)[C@H](C(C)C)NC(=O)[C@H](CC(C)C)NC(=O)[C@H](CC(N)=O)NC(=O)[C@@H](C)NC(=O)[C@H](C)N(C)C(=O)[C@H](C(C)C)NC(=O)[C@H](Cc2ccc(-c3ccccc3)cc2)NC1=O [Compound 1722] ({CH2CO}-[4Pal]YDWL[Bip]V[NMeA][dA]NLVSCG-NH2; thioether N-14) |
| 0.28 µM | CC(C)C[C@@H]1NC(=O)[C@H](Cc2c[nH]c3ccccc23)NC(=O)[C@H](CC(=O)O)NC(=O)[C@H](Cc2ccc(O)cc2)NC(=O)[C@H](Cc2ccccc2)NC(=O)CSC[C@@H](C(=O)NCC(N)=O)NC(=O)[C@H](CO)NC(=O)[C@H](C(C)C)NC(=O)[C@H](CC(C)C)NC(=O)[C@H](CC(N)=O)NC(=O)[C@H](CCCNC(N)=O)NC(=O)[C@H](C)N(C)C(=O)[C@H](C(C)C)NC(=O)[C@H](Cc2ccc(-c3ccccc3)cc2)NC1=O [Compound 1812] ({CH2CO}-FYDWL[Bip]V[NMeA][Cit]NLVSCG-NH2; thioether N-14) |
| 0.19 µM | CC(C)C[C@@H]1NC(=O)[C@H](CCN)NC(=O)[C@@H](CC(C)C)NC(=O)[C@H](C)N(C)C(=O)[C@H](Cc2cnc[nH]2)NC(=O)[C@H](Cc2ccc(-c3ccccc3)cc2)NC(=O)[C@H](C(C)C)NC(=O)[C@H](Cc2c[nH]c3ccccc23)NC(=O)[C@H](CC(=O)O)NC(=O)[C@H](Cc2cccc(Cl)c2)NC(=O)[C@H](CN)NC(=O)CSC[C@@H](C(=O)N[C@@H](C)C(N)=O)NC(=O)[C@H]([C@@H](C)O)NC(=O)[C@H](C(C)C)NC1=O [Compound 1440] ({CH2CO}-[Dap][Phe(3-Cl)]DWV[Bip]H[NMeA][dL][Dab]LVTCA-NH2; thioether N-14) |
| 0.08 µM | CC(C)C[C@@H]1NC(=O)[C@H](Cc2c[nH]c3ccccc23)NC(=O)[C@H](CC(=O)O)NC(=O)[C@H](Cc2ccc(O)cc2)NC(=O)[C@H](Cc2ccccc2)NC(=O)CSC[C@@H](C(=O)N[C@@H](C)C(N)=O)NC(=O)[C@H](CO)NC(=O)[C@H](C(C)C)NC(=O)[C@H](CC(C)C)NC(=O)[C@H](CC(N)=O)NC(=O)[C@@H](C)NC(=O)[C@H](C)N(C)C(=O)[C@H](CCCNC(=N)N)NC(=O)[C@H](Cc2ccc(-c3ccccc3)cc2)NC1=O [Compound 1781] ({CH2CO}-FYDWL[Bip]R[NMeA][dA]NLVSCA-NH2; thioether N-14) |
| 0.11 µM | Cc1cccc(C[C@@H]2NC(=O)[C@H](CC(=O)O)NC(=O)[C@H](Cc3ccc(O)cc3)NC(=O)[C@H](CC(N)=O)NC(=O)CSC[C@@H](C(=O)N[C@H](C)C(N)=O)NC(=O)[C@H](CCC(=O)O)NC(=O)[C@H](C(C)C)NC(=O)[C@H](CC3CCCCC3)NC(=O)[C@H](CCN)NC(=O)[C@@H](CC(C)C)NC(=O)[C@H](C)N(C)C(=O)[C@H](CCCNC(N)=O)NC(=O)[C@H](Cc3ccc(-c4ccccc4)cc3)NC(=O)[C@H](C(C)(C)O)NC2=O)c1 [Compound 1710] ({CH2CO}-NYD[Phe(3-Me)][Val(3-OH)][Bip][Cit][NMeA][dL][Dab][Cha]VEC[dA]-NH2; thioether N-14) |
| 0.01 µM | CCNC(=O)[C@H](CCN)NC(=O)[C@@H]1CSCC(=O)N[C@@H](CCc2ccccc2)C(=O)N[C@@H](Cc2ccc(OCC(=O)O)cc2)C(=O)N[C@@H](CC(=O)O)C(=O)N[C@@H](Cc2cccc(C)c2)C(=O)N[C@@H](Cc2ccc(OCC(=O)O)cc2)C(=O)N[C@@H](Cc2ccc(-c3ccccc3)cc2)C(=O)N[C@@H](Cc2ccc(OCC(=O)O)cc2)C(=O)N(C)[C@@H](C)C(=O)N[C@H](CC(C)C)C(=O)N[C@@H](CCN)C(=O)N[C@@H](CC2CCCCC2)C(=O)N[C@@H](C(C)C)C(=O)N[C@@H]([C@@H](C)O)C(=O)N1 [Compound 1855] ({CH2CO}-[hPhe]Y(Carboxymethyl)D[Phe(3-Me)]Y(Carboxymethyl)[Bip]Y(Carboxymethyl)[NMeA][dL][Dab][Cha]VTC[Dab]-NHEt; thioether N-14) |
| 0.04 µM | CC(C)C[C@@H]1NC(=O)[C@H](CCN)NC(=O)[C@@H](CC(C)C)NC(=O)[C@H](C)N(C)C(=O)[C@H](CCCNC(N)=O)NC(=O)[C@H](Cc2ccc(-c3ccccc3)cc2)NC(=O)[C@H](C(C)C)NC(=O)[C@H](Cc2c[nH]c3ccccc23)NC(=O)[C@H](CC(=O)O)NC(=O)[C@H](Cc2ccc(C(=O)O)cc2)NC(=O)[C@H](CC(N)=O)NC(=O)CSC[C@@H](C(=O)N[C@@H](C)C(N)=O)NC(=O)[C@H]([C@@H](C)O)NC(=O)[C@H](C(C)C)NC1=O [Compound 1317] ({CH2CO}-N[Phe(4-COOH)]DWV[Bip][Cit][NMeA][dL][Dab]LVTCA-NH2; thioether N-14) |
| 0.14 µM | Cc1cccc(C[C@@H]2NC(=O)[C@H](CC(=O)O)NC(=O)[C@H](Cc3ccc(O)cc3)NC(=O)[C@H](CC(N)=O)NC(=O)CSC[C@@H](C(N)=O)NC(=O)[C@H]([C@@H](C)O)NC(=O)[C@H](C(C)C)NC(=O)[C@H](CC(C)C)NC(=O)[C@H](CCN)NC(=O)[C@@H](CC(C)C)NC(=O)[C@H](C)N(C)C(=O)[C@H](CCCNC(N)=O)NC(=O)[C@H](Cc3ccc(-c4ccccc4)cc3)NC(=O)[C@H](C(C)C)NC2=O)c1 [Compound 1641] ({CH2CO}-NYD[Phe(3-Me)]V[Bip][Cit][NMeA][dL][Dab]LVTC-NH2; thioether N-14) |
| 0.06 µM | CC(C)C[C@@H]1NC(=O)[C@H](CCCNC(=N)N)NC(=O)[C@@H](CC(C)C)NC(=O)[C@H](C)N(C)C(=O)[C@H](CCC(=O)O)NC(=O)[C@H](Cc2ccc(-c3ccccc3)cc2)NC(=O)[C@H](C(C)C)NC(=O)[C@H](Cc2c[nH]c3ccccc23)NC(=O)[C@H](CC(=O)O)NC(=O)[C@H](Cc2ccc(O)cc2)NC(=O)[C@H](CC(N)=O)NC(=O)CSC[C@@H](C(=O)N[C@@H](C)C(N)=O)NC(=O)[C@H](CO)NC(=O)[C@H](C(C)C)NC1=O [Compound 1256] ({CH2CO}-NYDWV[Bip]E[NMeA][dL]RLVSCA-NH2; thioether N-14) |
| 0.01 µM | COc1cccc(C[C@@H]2NC(=O)[C@H](Cc3cccnc3)NC(=O)CSC[C@@H](C(=O)NCC(N)=O)NC(=O)[C@H](CO)NC(=O)[C@H](C(C)C)NC(=O)[C@H](CC(C)C)NC(=O)[C@H](CC(N)=O)NC(=O)[C@@H](CC(C)C)NC(=O)[C@H](C)N(C)C(=O)[C@H](C(C)C)NC(=O)[C@H](Cc3ccc(-c4ccccc4)cc3)NC(=O)[C@H](CC(C)C)NC(=O)[C@H](Cc3c[nH]c4ccccc34)NC(=O)[C@H](CC(=O)O)NC2=O)c1 [Compound 1524] ({CH2CO}-[3Pal][Phe(3-OMe)]DWL[Bip]V[NMeA][dL]NLVSCG-NH2; thioether N-14) |
| 0.02 µM | CC(C)C[C@@H]1NC(=O)[C@H](Cc2c[nH]c3ccccc23)NC(=O)[C@H](CC(=O)O)NC(=O)[C@H](Cc2ccc(CN)cc2)NC(=O)[C@H](Cc2ccccc2)NC(=O)CSC[C@@H](C(=O)N[C@@H](C)C(N)=O)NC(=O)[C@H](CO)NC(=O)[C@H](C(C)C)NC(=O)[C@H](CC(C)C)NC(=O)[C@H](CC(N)=O)NC(=O)[C@@H](C)NC(=O)[C@H](C)N(C)C(=O)[C@H](C(C)C)NC(=O)[C@H](Cc2ccc(-c3ccccc3)cc2)NC1=O [Compound 1750] ({CH2CO}-F[Phe(4-CH2NH2)]DWL[Bip]V[NMeA][dA]NLVSCA-NH2; thioether N-14) |
